# Laboratory results reported in publication PMC8264259, “A Novel Ruthenium(II) Complex With Lapachol Induces G2/M Phase Arrest Through Aurora-B Kinase Down-Regulation and ROS-Mediated Apoptosis in Human Prostate Adenocarcinoma Cells” (Frontiers in Oncology, 2021).
# Assays:
# PNT-2 cells = test: Comet assay, PNT-2; format: cell-based, human
# Procedure: The comet assay was performed to evaluate DNA damage following the method described by ([37]). Briefly, DU-145 and PNT-2 cells were seeded (1.0 × 10^5 cells/well) in 24-well plates and maintained to attach at 37°C in 5% CO2 for 24 h. After, cells were treated with different concentrations of complex (2) for 24 h. DMSO (0.1% v/v) was used as the vehicle control and methyl methanesulfonate (150 μM, Sigma-Aldrich) as DNA damage inducer. Following 24 h of incubation, the cells were collected, and cell viability assay was performed using trypan blue dye. […] Then, cells were mixed with UltraPure™ Low-Melting-Point Agarose (0.5%, Invitrogen®), and added on pre-coated slides with UltraPure™ Agarose (1.5%, Invitrogen®). After agarose solidification, the slides were immersed in a lysis solution (2.5 M NaCl, 100 mM EDTA, 10 mM Tris, 10% DMSO, 1% Triton X-100, pH 10.4) for 18 h at 4°C. […] The nucleoids were identified in a fluorescence microscope (AxioStar Plus, Carl Zeiss Axio Cam MRc-AxioVision 3.1) using a 516 to 560 nm filter, 590 nm filter barrier, in 20× objective with an integrated digital camera. For each treatment, 100 random nucleoids were analyzed, and the tail fluorescence was measured through the Comet Assay IV™ imaging system (Perceptive Instruments^©, Bury St Edmunds, England).
# DU-145 cells [1] = test: Cell cycle analysis (PI, flow cytometry); format: cell-based, human; settings: DU-145, 0.25-1.5 μM, 24 h
# Procedure: DNA staining was performed using BD Cycletest™ Plus DNA Kit (BD Biosciences, USA) according to the manufacturer’s instructions. Briefly, DU-145 cells were seeded (5.0 × 10^4 cells/well) into 24-well culture plates and maintained to attach at 37°C in 5% CO2. After 24 h, the culture medium was replaced by complete culture medium containing 0.25, 0.5, 1.0, and 1.5 μM of complex (2). DMSO (0.1% v/v) was used as the vehicle control. Then, after 24 h treatment, the cells were harvested and fixed with 70% ethanol at 4°C for 1 h. Cells were incubated with 0.1 mg/ml RNase and 0.5 mg/ml propidium iodide (PI) for 10 min. Samples were then filtered using 50-µm nylon mesh and the FACSCanto flow cytometer (Becton Dickinson, Franklin Lakes, NJ, USA) was used to analyze the DNA histogram. Data from 10,000 cells were acquired and analyzed using the ModFit software (BD Biosciences, USA). The results were expressed as percentage of cells in each cell cycle phase (G1, S, and G2/M).
# DU-145 cells [2] = test: Gene expression analysis by qPCR array (Human Cancer Drug Targets); format: cell-based; settings: DU-145, 1.0 µM, 12 h, mRNA, ΔΔCt vs vehicle
# Procedure: Briefly, DU-145 cells were seeded (1.0 × 10^6 cells/well) into six-well plates and maintained to attach at 37°C in 5% CO2. After 24 h, the cells were treated with 1.0 μM of the complex (2). DMSO (0.1% v/v) was used as the vehicle control. After 12 h of incubation, total RNA was isolated from the cells using the RNeasy® Mini kit (Qiagen, Germany) according to the manufacturer’s instructions. RNA was quantified by NanoDrop spectrophotometer (ND-2000; Thermo Fischer Scientific). The Agilent 2100 Bioanalyzer and Agilent RNA 6000 Nanochip kits were used to assess the total RNA quality as per manual instruction (Agilent, USA). The Agilent 2100 Expert software (Version B.02.07.SI532) was used with the Eukaryote Total RNA Nano assay on the Agilent 2100 bioanalyzer. No significant differences in RIN values were observed across the samples. Complementary DNA strands were synthesized using the RT^2 First Strand kit (Qiagen, Germany), following the manufacturer’s instructions. Gene expression profiling was performed using the RT^2 Profiler™ PCR Array Human Cancer Drug Targets (PAHS 507Z, Qiagen) by qPCR. The reactions were conducted in the Applied Biosystems 7500 PCR System (Applied Biosystems, USA) thermocycler. The plate was heated to 95°C for 10 min, followed by 40 cycles of 95°C for 15 s and 60°C for 1 min, followed by the dissociation curve. The expression profile of 84 key drug targets genes was analyzed. Fold changes amplification for targeted genes was normalized to the housekeeping genes GAPDH and RPLP0 by the delta–delta cycle threshold method (ΔΔCt), and the cells treated with vehicle control (0.1% of DMSO v/v) was used as calibrator. The threshold cycle values of control wells were all within the ranges recommended by the PCR array user manual. Three independent biological replicates were performed. All experiments were performed in DNase/RNase free conditions. Genes were considered differentially regulated if the difference was ≥1.8-fold, which means that the gene expression in the compound-treated cells was at 1.8-fold that in the negative control-treated cells. Differences were considered significant at p ≤ 0.05. Statistical analysis of two groups was performed automatically according to the GeneGlobe Data Analysis Center (Qiagen, USA; https://geneglobe.qiagen.com/us/analyze).
structure (smiles),measurement,setting,value
"CC(C)=CCC1=C([O-])C(=O)c2ccccc2C1=O.F[P-](F)(F)(F)(F)F.[Ru+2].c1ccc(P(CP(c2ccccc2)c2ccccc2)c2ccccc2)cc1.c1cnc2c(c1)ccc1cccnc12 [complex (2), [Ru(Lap)(dppm)(phen)]PF6]",DNA damage (comet tail intensity),"PNT-2 cells; PNT-2, maximum tested concentration 6.0 μM (~IC50), 24 h",increase in DNA damage
same,DNA damage (comet tail intensity),"PNT-2 cells; PNT-2 prostate normal cells, same concentrations as DU-145, 24 h",no DNA damage
same,cell cycle distribution,DU-145 cells [1],increased cell number at the G2/M phase
same,"Fold change, AKT1",DU-145 cells [2],−2.6 fold
same,"Fold change, AKT2",DU-145 cells [2],−2.6 fold
same,"Fold change, AURKA",DU-145 cells [2],-5.3 fold
same,"Fold change, AURKB",DU-145 cells [2],-11.1 fold
same,"Fold change, AURKC",DU-145 cells [2],-3.0 fold
same,"Fold change, BCL2",DU-145 cells [2],-4.1 fold
same,"Fold change, BIRC5",DU-145 cells [2],-6.4 fold
same,"Fold change, CDC25A",DU-145 cells [2],−2.6 fold
same,"Fold change, CDK1",DU-145 cells [2],-4.5 fold
same,"Fold change, CDK2",DU-145 cells [2],−2.7 fold
same,"Fold change, CDK4",DU-145 cells [2],-4.6 fold
same,"Fold change, CDK5",DU-145 cells [2],−3.2 fold
same,"Fold change, EGFR",DU-145 cells [2],−4.1 fold
same,"Fold change, ERBB2",DU-145 cells [2],−2.4 fold
same,"Fold change, GSTP1",DU-145 cells [2],−2.9 fold
same,"Fold change, HDAC8",DU-145 cells [2],−1.8 fold
same,"Fold change, IGF1R",DU-145 cells [2],−2.7 fold
same,"Fold change, MDM4",DU-145 cells [2],2.8 fold
same,"Fold change, MTOR",DU-145 cells [2],−3.8 fold
same,"Fold change, PARP1",DU-145 cells [2],−2.7 fold
same,"Fold change, PARP2",DU-145 cells [2],−3.0 fold
same,"Fold change, PDGFRB",DU-145 cells [2],−2.0 fold
same,"Fold change, PIK3CA",DU-145 cells [2],−2.7 fold
same,"Fold change, PTGS2",DU-145 cells [2],2.1 fold
same,"Fold change, TOP2A",DU-145 cells [2],−2.1 fold
same,"Fold change, TOP2B",DU-145 cells [2],−2.8 fold
